Tests used:
[1] = system: Magnaporthe grisea (Pyricularia oryzae—PYRIOR); test: microbe, parasite or virus in culture; format: cell-based; conditions: Pyricularia oryzae, read-out: PYRIOR in vitro Growth Inhibition
[2] = system: Rhizoctonia solani (RHIZSO); test: microbe, parasite or virus in culture; format: cell-based; conditions: Rhizoctonia solani, read-out: RHIZSO in vitro Growth Inhibition
[3] = system: Mycosphaerella graminicola (Septoria tritici—SEPTTR); test: In vitro fungal growth inhibition, Mycosphaerella graminicola (SEPTTR); format: cell-based; conditions: Zymoseptoria tritici; 25 ppm in growth medium; read-out: SEPTTR in vitro Growth Inhibition
[4] = system: Stagonospora nodorum (Leptosphaeria nodorum—LEPTNO); test: In vitro fungal growth inhibition, Stagonospora nodorum (LEPTNO); format: cell-based; conditions: Leptosphaeria; 25 ppm in growth medium; read-out: LEPTNO in vitro Growth Inhibition
Ustilago maydis (USTIMA) = test: microbe, parasite or virus in culture; format: cell-based; conditions: Mycosarcoma maydis, read-out: USTIMA in vitro Growth Inhibition
[5] = system: Phytophthora infestans (PHYTIN); test: microbe, parasite or virus in culture; format: cell-based; conditions: Phytophthora infestans, read-out: PHYTIN in vitro Growth Inhibition
[6] = system: Phytophthora infestans—PHYTIN; test: whole plant or invertebrate; format: in vivo; conditions: Phytophthora, in Solanum lycopersicum, 24 h, read-out: PHYTIN in vivo 1 Day Protectant
[7] = system: Puccinia recondita—PUCCRT; test: Brown Rust of Wheat, in vivo whole plant, 24 Hour Protectant; conditions: Puccinia; 100 ppm spray, wheat, 24 hour protectant; control of fungal infection vs untreated plants; read-out: PUCCRT in vivo 1 Day Protectant
Erysiphe graminis—ERYSGT = test: Powdery Mildew of Wheat, in vivo whole plant, 24 Hour Protectant; conditions: Erysiphe; 100 ppm spray, wheat, 24 hour protectant; control of fungal infection vs untreated plants; read-out: ERYSGT in vivo 1 Day Protectant
Septoria tritici—SEPTTR = test: Leaf Blotch of Wheat, in vivo whole plant, 24 Hour Protectant; conditions: Zymoseptoria tritici, 24 h, 100 ppm spray, wheat, 24 hour protectant; control of fungal infection vs untreated plants; read-out: SEPTTR in vivo 1 Day Protectant
[8] = system: Leptosphaeria nodorum—LEPTNO; test: Glume Blotch of Wheat, in vivo whole plant, 24 Hour Protectant; conditions: 100 ppm spray, wheat, 24 hour protectant, control of fungal infection vs untreated plants; for pest or weed control at 100 ppm: Leptosphaeria, read-out: LEPTNO in vivo 1 Day Protectant

Compound | inhibition at 25 ppm [1] | inhibition at 25 ppm [2] | inhibition at 25 ppm [3] | inhibition at 25 ppm [4] | inhibition at 25 ppm (Ustilago maydis (USTIMA)) | inhibition at 25 ppm [5] | pest or weed control at 100 ppm [6] | pest or weed control at 100 ppm [7] | pest or weed control at 100 ppm (Erysiphe graminis—ERYSGT) | pest or weed control at 100 ppm (Septoria tritici—SEPTTR) | pest or weed control at 100 ppm [8] | LEPTNO in vivo 1 Day Protectant [8]
COc1cccc(Oc2ccc(NC(=O)c3nccc(OC)c3O)cc2)c1 [Compound 434] | < 80% | < 80% | > 80% | > 80% | < 80% | < 80% | < 25% | < 25% | 25 to 74% | < 25% | 25 to 74% | –
COc1ccc(Oc2ccc(NC(=O)c3nccc(OC)c3O)cc2)cc1 [Compound 435] | < 80% | < 80% | > 80% | < 80% | < 80% | < 80% | < 25% | < 25% | < 25% | < 25% | 25 to 74% | –
COc1ccnc(C(=O)Nc2ccccc2Oc2cccc(Cl)c2)c1O [Compound 437] | < 80% | < 80% | > 80% | < 80% | < 80% | < 80% | 25 to 74% | < 25% | < 25% | < 25% | < 25% | –
COc1ccnc(C(=O)Nc2ccccc2Oc2ccc(Cl)cc2)c1O [Compound 438] | > 80% | < 80% | > 80% | > 80% | < 80% | < 80% | < 25% | < 25% | < 25% | < 25% | < 25% | –
COc1ccnc(C(=O)Nc2cccc(Oc3ccccc3Cl)c2)c1O [Compound 439] | < 80% | < 80% | < 80% | < 80% | < 80% | < 80% | < 25% | 25 to 74% | < 25% | < 25% | 25 to 74% | –
COc1ccnc(C(=O)Nc2cccc(Oc3ccc(Cl)cc3)c2)c1O [Compound 440] | > 80% | < 80% | > 80% | > 80% | < 80% | < 80% | < 25% | 25 to 74% | < 25% | 25 to 74% | – | + +
COc1ccnc(C(=O)Nc2ccc(Oc3ccccc3Cl)cc2)c1O [Compound 441] | < 80% | < 80% | > 80% | < 80% | < 80% | < 80% | < 25% | < 25% | < 25% | < 25% | < 25% | –
COc1ccnc(C(=O)Nc2ccc(Oc3cccc(Cl)c3)cc2)c1O [Compound 442] | > 80% | < 80% | > 80% | > 80% | < 80% | < 80% | 25 to 74% | 25 to 74% | < 25% | < 25% | < 25% | –
COc1ccnc(C(=O)Nc2ccc(Oc3ccc(Cl)cc3)cc2)c1O [Compound 443] | < 80% | < 80% | < 80% | > 80% | < 80% | < 80% | < 25% | 25 to 74% | < 25% | < 25% | < 25% | –
COc1ccnc(C(=O)Nc2ccc(Sc3ccc(C(F)(F)F)cc3)cc2)c1O [Compound 446] | < 80% | < 80% | < 80% | < 80% | < 80% | < 80% | 25 to 74% | < 25% | < 25% | < 25% | < 25% | –
COc1ccnc(C(=O)Nc2ccc(OCc3cccc(C(F)(F)F)c3)cc2)c1O [Compound 447] | < 80% | < 80% | < 80% | < 80% | < 80% | < 80% | < 25% | < 25% | < 25% | < 25% | 25 to 74% | –
COc1ccnc(C(=O)Nc2ccc(OCc3ccc(C(F)(F)F)cc3)cc2)c1O [Compound 448] | < 80% | < 80% | < 80% | < 80% | > 80% | < 80% | < 25% | 25 to 74% | < 25% | 25 to 74% | – | + +
COc1ccnc(C(=O)Nc2ccc(C(=O)Nc3cccc(C(F)(F)F)c3)cc2)c1O [Compound 449] | > 80% | > 80% | < 80% | < 80% | < 80% | < 80% | < 25% | < 25% | < 25% | 25 to 74% | 25 to 74% | –
COc1ccnc(C(=O)Nc2ccc(C(=O)Oc3ccc(C(F)(F)F)cc3)cc2)c1O [Compound 452] | < 80% | < 80% | < 80% | < 80% | < 80% | < 80% | < 25% | < 25% | < 25% | 25 to 74% | 25 to 74% | –
COc1ccnc(C(=O)Nc2cc(C)c(OC(=O)C(C)C)c(C)c2)c1O [Compound 455] | < 80% | < 80% | < 80% | > 80% | > 80% | < 80% | < 25% | < 25% | < 25% | 25 to 74% | 25 to 74% | –
COc1ccnc(C(=O)Nc2cc(C)c(OC(=O)c3ccccc3)c(C)c2)c1O [Compound 456] | < 80% | < 80% | > 80% | > 80% | < 80% | < 80% | < 25% | < 25% | < 25% | 25 to 74% | < 25% | –
